Source: patent US8835440B2, “Cyclic pyrimidin-4-carboxamides as CCR2 receptor antagonists for treatment of inflammation, asthma and COPD” (Boehringer Ingelheim International GmbH, priority 2008, dated 2014)

Molecular target: T1, CCR2 (Homo sapiens, UniProt P41597)
T1 construct: Membranes were prepared from THP-1 cells; endogenous in cells; host or cells: THP-1 cells (membrane preparation)
T1 sequence (P41597 1-360 isoform P41597-2): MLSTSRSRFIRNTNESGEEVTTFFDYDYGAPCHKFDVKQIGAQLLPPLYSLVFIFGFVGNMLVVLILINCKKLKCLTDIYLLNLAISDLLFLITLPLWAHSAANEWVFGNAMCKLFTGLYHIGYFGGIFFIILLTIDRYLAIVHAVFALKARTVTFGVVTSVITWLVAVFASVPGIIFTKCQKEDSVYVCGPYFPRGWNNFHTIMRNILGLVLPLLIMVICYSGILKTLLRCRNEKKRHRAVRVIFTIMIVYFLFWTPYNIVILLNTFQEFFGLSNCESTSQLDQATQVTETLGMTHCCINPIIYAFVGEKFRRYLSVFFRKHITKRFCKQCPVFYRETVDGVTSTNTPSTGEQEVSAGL
Experiment: CCR2 receptor membrane binding assay ([125I]MCP-1, THP-1 cell membranes, SPA beads)
Details: for remaining activity at 10 µM: @ 10 μM test compound, THP-1 membranes, read-out: CCR2 % ctrl @ 10 μM; for Ki: dissociation constant hKi, [125I]MCP-1 binding to THP-1 membranes
Description: The above exemplary substances have been tested for binding to CCR2 using a binding assay as outlined herein below:
THP-1 cells (human acute monocytic leukaemia cells) were cultured under standardized conditions at 37° C. and 5% CO2 in a humidified incubator. THP-1 cells were cultivated in RPMI 1640 medium (Gibco 21875) containing 1% MEM-NEAA (Gibso 11140) 2 mM L-glutamine, 1.5 g/L sodium bicarbonate, 4.5 g/L glucose, 10 mM HEPES and 1.0 mM sodium pyruvate, 90%; 10% fetal calf serum (FCS Gibco 10500-064).
Membranes were prepared from THP-1 cells. THP-1 cells were centrifuged at 300×g at 4° C. for 10 min. The cell pellet was resuspendet in Phosphate Buffer Saline (PBS, including 10 μM Pefabloc and a protease inhibitor mix ‘complete’, Boehringer Mannheim (1 tablet/50 ml)), to a concentration of […]. The membrane preparation was performed by disrupting the cells by nitrogen […] (at 50 bar, for 1 h) in a “Nitrogen Bombe” (Parr Instrument). Cell debris was removed by centrifugation (800×g at 4° C., 1 min). The supernatant was centrifuged at 80000×g, 4° C. for 30 min to sediment the cell membranes. Usually 50 mg of protein (Bradford assay) were yielded from 1×10E9 cells. The membranes were resuspendet in 25 mM HEPES, 25 mM MgCl2, 1 mM CaCl2, 10% Glycerine for storage in aliquots at −80° C. in 25 mM HEPES, 25 mM MgCl2, 1 mM CaCl2, 10% Glycerine and stored at −80° C.
Receptor Membrane Binding Assay:
Perkin Elmer NEX 332 Jod 125 MCP-1, Stock: 2200 Ci/mmol solved in 2000 μl assay buffer, stored at −20° C. THP-1 membrane were adjusted with 25 mM HEPES, pH 7.2; 5 mM MgCl2; 0.5 mM CaCl2; 0.2% BSA assay buffer to a concentration of […]. Amersham Biosciences PVT-WGA Beads (RPNQ0001) were adjusted with assay buffer to a concentration of 0.24 mg/30 μl. For preparation of the membrane-bead-suspension membranes and beads were incubated for 30 min at RT under rotation (60 rpm) with a ratio of 1:2. Test compounds dissolved in 100% DMSO to a concentration of 10 mM and are further diluted with 100% DMSO to 1 mM. All additional compound dilutions were obtained with assay buffer, final 1% DMSO. Compounds, membrane-bead-suspension and [125I]MCP-1 (ca. 25000 cpm/10 μl) were incubated. Bound radioactivity was determined by scintillation counter after 8 h. Determination of affinity of test compounds (dissociation constant hKi) is calculated by iterative fitting of experimental data using the “easy sys” program, which is based on law of mass action (Schittkowski K. (1994), Numerische Mathematik, Vol. 68, 129-142).

| remaining activity at 10 µM [%] | Ki [µM] | SMILES |
| --- | --- | --- |
| 14 | 0.204 | Cc1c(NCCc2ccc(Cl)c(Cl)c2)ncnc1C(=O)N1CCC(N2CCC(O)CC2)CC1 [Example 3] |
| 43 | 1.59 | Cc1c(NCc2cccc(C(F)(F)F)c2)ncnc1C(=O)N1CCC(N2CCC(O)CC2)CC1 [Example 4] |
| 26 | 0.616 | Cc1c(NCc2ccc(OC(F)(F)F)cc2)ncnc1C(=O)N1CCC(N2CCC(O)CC2)CC1 [Example 5] |
| 41 | 1.93 | Cc1c(NCc2cc(F)cc(C(F)(F)F)c2)ncnc1C(=O)N1CCC(N2CCC(O)CC2)CC1 [Example 6] |
| 16 | 0.306 | Cc1c(NCc2ccc(C(C)(C)C)cc2)ncnc1C(=O)N1CCC(N2CCC(O)CC2)CC1 [Example 7] |
| 36 | 1.02 | Cc1c(NCc2cccc(OC(F)(F)F)c2)ncnc1C(=O)N1CCC(N2CCC(O)CC2)CC1 [Example 8] |
| 32 | 0.974 | Cc1c(NCc2ccc(C(F)(F)F)cc2)ncnc1C(=O)N1CCC(N2CCC(O)CC2)CC1 [Example 9] |
| 27 | 0.65 | Cc1c(NCc2ccc(C(F)(F)F)c(F)c2)ncnc1C(=O)N1CCC(N2CCC(O)CC2)CC1 [Example 10] |
| 29 | 0.664 | Cc1c(NCCc2ccc(C(F)(F)F)cc2)ncnc1C(=O)N1CCC(N2CCC(O)CC2)CC1 [Example 12] |
| 18 | 0.302 | Cc1c(NCCCc2ccccc2)ncnc1C(=O)N1CCC(N2CCC(O)CC2)CC1 [Example 17] |
| 51 | 2.66 | Cc1c(NCc2ccc(C(F)(F)F)cc2F)ncnc1C(=O)N1CCC(N2CCC(O)CC2)CC1 [Example 21] |
| 40 | 2.1 | Cc1c(NCc2ccc3occc3c2)ncnc1C(=O)N1CCC(N2CCC(O)CC2)CC1 [Example 29] |
| 18 | 0.446 | Cc1ccc(CNc2ncnc(C(=O)N3CCC(N4CCC(O)CC4)CC3)c2C)cc1Cl [Example 30] |
| 28 | 0.79 | Cc1ccc(CNc2ncnc(C(=O)N3CCC(N4CCC(O)CC4)CC3)c2C)cc1C [Example 31] |

The remaining lines, values behind:

| SMILES | remaining activity at 10 µM [%] | Ki [µM] |
| --- | --- | --- |
| Cc1c(NCc2ccc(C(C)(C)C)cc2)ncnc1C(=O)N1CCC(N2CCC(N(C)S(C)(=O)=O)CC2)CC1 [Example 1] | 1 | 0.032 |
| Cc1c(NCCc2ccc(Cl)c(Cl)c2)ncnc1C(=O)N1CCC(N2CCCCC2)CC1 [Example 2] | 13 | 0.222 |
| Cc1c(NCCc2cccc(C(F)(F)F)c2)ncnc1C(=O)N1CCC(N2CCC(O)CC2)CC1 [Example 11] | 38 | 1.71 |
| Cc1c(NCC2CCC(C(F)(F)F)CC2)ncnc1C(=O)N1CCC(N2CCC(O)CC2)CC1 (stereo not drawn) [Example 13] | 42 | 1.33 |
| Cc1c(NCCc2ccc(OC(F)(F)F)cc2)ncnc1C(=O)N1CCC(N2CCC(O)CC2)CC1 [Example 14] | 22 | 0.387 |
| Cc1c(NCCCCc2ccccc2)ncnc1C(=O)N1CCC(N2CCC(O)CC2)CC1 [Example 15] | 14 | 0.2 |
| Cc1c(NCCOc2ccccc2)ncnc1C(=O)N1CCC(N2CCC(O)CC2)CC1 [Example 16] | 40 | 1.9 |
| Cc1c(NCCOCc2ccccc2)ncnc1C(=O)N1CCC(N2CCC(O)CC2)CC1 [Example 18] | 52 | 3.5 |
| Cc1c(NCC2COc3ccccc3C2)ncnc1C(=O)N1CCC(N2CCC(O)CC2)CC1 (stereo not drawn) [Example 19] | 40 | 0.269 |
| Cc1c(NCC2CCN(c3ccccc3)C2)ncnc1C(=O)N1CCC(N2CCC(O)CC2)CC1 (stereo not drawn) [Example 20] | 24 | 0.303 |
| Cc1c(NC2CCC(c3ccccc3)CC2)ncnc1C(=O)N1CCC(N2CCC(O)CC2)CC1 (stereo not drawn) [Example 22] | 24 | 0.466 |
| Cc1c(NCC2Cc3ccccc3C2)ncnc1C(=O)N1CCC(N2CCC(O)CC2)CC1 [Example 23] | 7 | 0.169 |
| Cc1c(NC2COc3ccccc3C2)ncnc1C(=O)N1CCC(N2CCC(O)CC2)CC1 (stereo not drawn) [Example 24] | 58 | 4.03 |
| Cc1c(N[C@@H]2CCc3ccccc3C2)ncnc1C(=O)N1CCC(N2CCC(O)CC2)CC1 [Example 25] | 47 | 2.41 |
| Cc1c(NCC2Cc3ccccc32)ncnc1C(=O)N1CCC(N2CCC(O)CC2)CC1 (stereo not drawn) [Example 26] | 30 | 0.914 |
| Cc1c(NCC2Cc3ccccc3O2)ncnc1C(=O)N1CCC(N2CCC(O)CC2)CC1 (stereo not drawn) [Example 27] | 25 | 0.62 |

| SMILES | remaining activity at 10 µM [%] | Ki [µM] |
| --- | --- | --- |
| Cc1c(NC2CCCCC2)ncnc1C(=O)N1CCC(N2CCC(O)CC2)CC1 [Example 28] | 58 | 4.18 |
| CCS(=O)(=O)N(C)C1CCN(C2CCN(C(=O)c3ncnc(NCc4ccc(C)c(Cl)c4)c3C)CC2)CC1 [Example 32] | 2 | 0.037 |
| CCS(=O)(=O)N(C)C1CCN(C2CCN(C(=O)c3ncnc(NCc4ccc(C(F)(F)F)c(Cl)c4)c3C)CC2)CC1 [Example 33] | 0 | 0.022 |
| CCS(=O)(=O)N(C)C1CCN(C2CCN(C(=O)c3ncnc(NCc4ccc(C(C)C)cc4)c3C)CC2)CC1 [Example 34] | 4 | 0.062 |
| CCS(=O)(=O)N(C)C1CCN(C2CCN(C(=O)c3ncnc(NCc4ccc(Cl)c(Cl)c4)c3C)CC2)CC1 [Example 35] | 5 | 0.024 |
| CCS(=O)(=O)N(C)C1CCN(C2CCN(C(=O)c3ncnc(NCCc4ccc(Cl)c(Cl)c4)c3C)CC2)CC1 [Example 36] | 1 | 0.01 |
| CCS(=O)(=O)N(C)C1CCN(C2CCN(C(=O)c3ncnc(NCc4ccc(C(C)(C)C)cc4)c3C)CC2)CC1 [Example 37] | 4 | 0.011 |
| CCS(=O)(=O)N(C)C1CCN(C2CCN(C(=O)c3ncnc(NCC4CCCN(c5ccccc5)C4)c3C)CC2)CC1 (stereo not drawn) [Example 38] | 13 | 0.069 |
| CCS(=O)(=O)N(C)C1CCN(C2CCN(C(=O)c3ncnc(NCc4ccc(Cl)c(F)c4)c3C)CC2)CC1 [Example 39] | 2 | 0.036 |
| CCS(=O)(=O)N(C)C1CCN(C2CCN(C(=O)c3ncnc(NCC4CCN(c5ccccc5)CC4)c3C)CC2)CC1 [Example 40] | 9 | 0.174 |
| CCS(=O)(=O)N(C)C1CCN(C2CCN(C(=O)c3ncnc(NC[C@H]4CCN(c5ccccc5)C4)c3C)CC2)CC1 [Example 41] | 6 | 0.011 |
| Cc1c(NCC2CCCN(c3ccccc3)C2)ncnc1C(=O)N1CCC(N2CCOCC2)CC1 (stereo not drawn) [Example 42] | 16 | 0.433 |
| Cc1ccc(CNc2ncnc(C(=O)N3CCC(N4CCOCC4)CC3)c2C)cc1Cl [Example 43] | 17 | 0.566 |
| Cc1ccc(CNc2ncnc(C(=O)N3CCC(N4CCOCC4)CC3)c2C)cc1F [Example 44] | 27 | 1.64 |
| Cc1c(NCc2ccc(Cl)c(F)c2)ncnc1C(=O)N1CCC(N2CCOCC2)CC1 [Example 45] | 17 | 0.501 |
